Where two headings read alike, the source gives them in different places.
Columns and labels:
[1] = tested on: KG1; test: Caspase-3/7 activation assay; assay type: cell-based; conditions: Homo sapiens, KG-1, 6 h
Method: (§1) Cells were plated at 3000 cells/well in 384-well white plates in corresponding cell growth media. […] Caspase-3/7 activation was subsequently determined using a Caspase-Glo 3/7 Reagent (Promega) and viability was assayed using the CellTiter-Glo Reagent (Promega) as described in manufacturer’s instructions. Dose–response curves for caspase-3/7 activation and viability were plotted and analyzed (including EC50 and GI50 determination) using GraphPad Prism.

[2] = tested on: GIST T1; test: Cell viability assay; assay type: cell-based; conditions: Homo sapiens, GISTT1, 24 h; GIST T1 (GI); read-out: AZD5991 24h GI50
Method: as §1

[3] = tested on: NCI-H929; test: Cell viability assay; assay type: cell-based; conditions: Homo sapiens, 24 h; NCI-H929 (MM); read-out: AZD5991 24h GI50
Method: as §1

[4] = tested on: MOLM13; test: Cell viability assay; assay type: cell-based; conditions: Homo sapiens, MOLM-13, 24 h; MOLM13 (AML); read-out: AZD5991 24h GI50
Method: as §1

[5] = tested on: Will2; test: Cell viability assay; assay type: cell-based; conditions: 24 h; Will2 (NHL); read-out: AZD5991 24h GI50
Method: as §1

[6] = tested on: Colo205; test: Cell viability assay; assay type: cell-based; conditions: Homo sapiens, COLO 205, 24 h; Colo205 (GI); read-out: AZD5991 24h GI50
Method: as §1

[7] = tested on: NCI-H929 tumors; test: NCI-H929 subcutaneous xenograft efficacy; assay type: in vivo, mice; conditions: single i.v. dose 100 mg kg^−1
Method: Female C.B.-17 SCID mice and female nude rats were purchased from Charles River Laboratories. […]. All xenograft studies were conducted at our Association for the Assessment and Accreditation of Laboratory Animal Care accredited facility in Waltham, MA in accordance with ethical regulations described in the guidelines established by the internal Institutional Animal Care and Use Committee. […]. In mice, drugs were dosed intravenously in a volume of 5 mL kg^-1 except for venetoclax that was dosed orally in a volume of 10 mL kg^-1. […]. Ten million MV4-11 cells were injected subcutaneously in the right flank of rats in a volume of 0.1 mL. Tumor volumes (measured by caliper), animal body weight, and tumor condition were recorded twice weekly for the duration of the study. The tumor volume was calculated using the formula: length (mm) × width (mm)^2/0.52. For efficacy studies, growth inhibition from the start of treatment was assessed by comparison of the differences in tumor volume between control and treated groups. Statistical significance was evaluated using non-parametric, unpaired, two-tailed t-test. […] For pharmacokinetic analysis, plasma samples were precipitated and diluted with acetonitrile containing internal standard and analyzed by LC–MS/MS versus a calibration curve of known concentrations.

[8] = tested on: primary MM cells; conditions: 48 MM patients, 24 h, Annexin V by flow
[9] = tested on: H2126; test: Cell viability assay; assay type: cell-based; conditions: Homo sapiens, NCI-H2126, 24 h; H2126 (Lung); read-out: AZD5991 24h GI50
Method: as §1

[10] = tested on: OV90; test: Cell viability assay; assay type: cell-based; conditions: Homo sapiens, OV-90, 24 h; OV90 (Others); read-out: AZD5991 24h GI50
Method: as §1

[11] = tested on: H446; test: Cell viability assay; assay type: cell-based; conditions: Homo sapiens, NCI-H446, 24 h; H446 (Lung); read-out: AZD5991 24h GI50
Method: as §1

[12] = tested on: DLD1; test: Cell viability assay; assay type: cell-based; conditions: Homo sapiens, DLD-1, 24 h; DLD1 (GI); read-out: AZD5991 24h GI50
Method: as §1

[13] = tested on: 647V; test: Cell viability assay; assay type: cell-based; conditions: Homo sapiens, 24 h; 647V (Urology); read-out: AZD5991 24h GI50
Method: as §1

[14] = tested on: KMS12PE; test: Cell viability assay; assay type: cell-based; conditions: Homo sapiens, KMS-12-PE, 24 h; KMS12PE (MM); read-out: AZD5991 24h GI50
Method: as §1

[15] = tested on: BT549; test: Cell viability assay; assay type: cell-based; conditions: Homo sapiens, BT-549, 24 h; BT549 (Breast); read-out: AZD5991 24h GI50
Method: as §1

[16] = tested on: MOLP-8 tumors; test: MOLP-8 subcutaneous xenograft efficacy; assay type: in vivo
Method: Female C.B.-17 SCID mice and female nude rats were purchased from Charles River Laboratories. […]. All xenograft studies were conducted at our Association for the Assessment and Accreditation of Laboratory Animal Care accredited facility in Waltham, MA in accordance with ethical regulations described in the guidelines established by the internal Institutional Animal Care and Use Committee. […]. In mice, drugs were dosed intravenously in a volume of 5 mL kg^-1 except for venetoclax that was dosed orally in a volume of 10 mL kg^-1. […]. Ten million MV4-11 cells were injected subcutaneously in the right flank of rats in a volume of 0.1 mL. Tumor volumes (measured by caliper), animal body weight, and tumor condition were recorded twice weekly for the duration of the study. The tumor volume was calculated using the formula: length (mm) × width (mm)^2[…]. For efficacy studies, growth inhibition from the start of treatment was assessed by comparison of the differences in tumor volume between control and treated groups. Statistical significance was evaluated using non-parametric, unpaired, two-tailed t-test. For efficacy studies, animals were randomized based on tumor volumes using stratified sampling, and enrolled into control and treatment groups. Dosing began when mean tumor size reached ~230 mm^3 in mice and 900 mm^3 in rats. Mice were euthanized once tumor size reached 2000 mm^3. Mice were excluded from the study upon body weight loss > 10% of the body weight at the initiation of the study. For pharmacokinetic analysis, plasma samples were precipitated and diluted with acetonitrile containing internal standard and analyzed by LC–MS/MS versus a calibration curve of known concentrations.

[17] = tested on: THP-1; test: Cell viability assay; assay type: cell-based; conditions: Homo sapiens, 24 h; THP-1 (AML); read-out: AZD5991 24h GI50
Method: as §1

[18] = tested on: SKMEL2; test: Cell viability assay; assay type: cell-based; conditions: Homo sapiens, SK-MEL-2, 24 h; SKMEL2 (Skin); read-out: AZD5991 24h GI50
Method: as §1

[19] = tested on: HCC1954; test: Cell viability assay; assay type: cell-based; conditions: Homo sapiens, 24 h; HCC1954 (Breast); read-out: AZD5991 24h GI50
Method: as §1

[20] = tested on: MUTZ3; test: Cell viability assay; assay type: cell-based; conditions: 24 h; MUTZ3 (AML); read-out: AZD5991 24h GI50
Method: as §1

[21] = tested on: Sudhl6; test: Cell viability assay; assay type: cell-based; conditions: Homo sapiens, SU-DHL-6, 24 h; Sudhl6 (NHL); read-out: AZD5991 24h GI50
Method: as §1

[22] = tested on: OCIAML3; test: Cell viability assay; assay type: cell-based; conditions: Homo sapiens, OCI-AML-3, 24 h, read-out: AZD5991 24h GI50
Method: as §1

[23] = tested on: OCILY10; test: Cell viability assay; assay type: cell-based; conditions: Homo sapiens, OCI-Ly10, 24 h; OCILY10 (NHL); read-out: AZD5991 24h GI50
Method: as §1

[24] = tested on: JEKO1; test: Cell viability assay; assay type: cell-based; conditions: Homo sapiens, JeKo-1, 24 h; JEKO1 (NHL); read-out: AZD5991 24h GI50
Method: as §1

[25] = tested on: Eμ-Myc lymphoma cells stably expressing human Bcl-xL; test: Apoptosis induction in Eμ-Myc lymphoma cells; conditions: overexpression of Bcl-xL, 24 h
Source text: The retroviral plasmids to express human Bcl-2 family members in murine Eμ-Myc lymphoma cells are MSCV-hMCL-1-GFP, MSCV-hBCL-2-GFP, MSCV-hBCL-XL-GFP, MSCV-hBFL-1/A1-GFP, and MSCV-hBCL-w-GFP. To produce viruses, constructs of interest were co-transfected into HEK293T cells with the plasmid encoding the packaging viruses (p-CL-AMPHO provided by Phillip Darcy from Peter MacCallum Cancer Center, Melbourne, Australia) using standard calcium phosphate transient transfection technique. The retroviruses were harvested, filtered and used to infect target cells following standard procedures.
Samples were then centrifuged, washed twice with PBS and analyzed by flow cytometry in a BD LSRFortessa. FACSDiva software was used for data collection and FlowJo software for data analysis.

[26] = single i.v. dose 60 mg kg^−1, ten days after treatment

Cc1c2c(nn1C)CSCc1cc(n(C)n1)CSc1cc(c3ccccc3c1)OCCCc1c(C(=O)O)n(C)c3c-2c(Cl)ccc13 (atropisomer, axis not shown; (Ra)) [(Ra)-7]
EC50 ([1]; read-out: 6h caspase EC50, KG1, single agent): > 333 nM | EC50 ([1]; read-out: AZD5991 6h EC50, KG1 (AML), caspase 3/7 activation): 509 nM | GI50 [2]: > 30000 nM | GI50 [3]: 53 nM | GI50 [4]: 42 nM | GI50 [5]: 43 nM | GI50 [6]: 20500 nM | mice with complete tumor regression [7]: four out of four | MM primary samples with EC50 values below 100 nM [8]: 71% | GI50 [9]: 320 nM | GI50 [10]: 22100 nM | GI50 [11]: 319 nM | GI50 [12]: 15100 nM | GI50 [13]: 22300 nM | GI50 [14]: 329 nM | GI50 [15]: 250 nM | tolerability, body weight ([16]; all dose levels, 10–100 mg kg^−1 single i.v. dose): no significant body weight loss | mice with tumor regression after second dose ([16]; single dose 36 days after the first dose, 100 mg kg^−1 i.v., regrown tumors): 4 out of 4 | tumor growth inhibition (TGI) ([16]; single i.v. dose 10 mg kg^−1, ten days after treatment): 52% | tumor growth inhibition (TGI) ([16]; single i.v. dose 30 mg kg^−1, ten days after treatment): 93% | mice with no detectable tumors [16, 26]: 6 out of 7 | tumor regression (TR) [16, 26]: 99% | mice with complete TR ([16]; single i.v. dose 100 mg kg^−1, ten days after treatment): 7 out of 7 | GI50 [17]: 76 nM | GI50 [18]: 9310 nM | GI50 [19]: 756 nM | GI50 [20]: 4 nM | GI50 [21]: 15 nM | GI50 [22]: 714 nM | GI50 [23]: 119 nM | GI50 [24]: 452 nM | apoptosis-inducing activity [25]: blocked
